Assay results as given in ChEMBL document CHEMBL4706560, “Design, synthesis and biological evaluation of indole-2-one derivatives as potent BRD4 inhibitors” (Eur J Med Chem, 2020).

Experiments:
[1] = test system: WI-38; test: Antiproliferative activity against human WI-38 cells incubated for 72 hrs by MTT assay; conditions: WI-38, 72 h
[2] = test system: HL-60; test: Antiproliferative activity against human HL60 cells incubated for 72 hrs by CCK8 assay; conditions: HL-60, 72 h
[3] = test system: HT-29; test: Antiproliferative activity against human HT29 cells incubated for 72 hrs by MTT assay; conditions: HT-29, 72 h
[4] = biological target: T1, Bromodomain-containing protein 4 (Homo sapiens, UniProt O60885); test: Inhibition of BRD4 BD1 (unknown origin) preincubated for 15 mins followed by peptide addition and measured after 60 mins by TR-FRET assay
[5] = biological target: T2, Bromodomain-containing protein 2 (Homo sapiens, UniProt P25440); test: Inhibition of BRD2 BD2 (unknown origin) preincubated for 15 mins followed by peptide addition and measured after 60 mins by TR-FRET assay
[6] = biological target: T1, Bromodomain-containing protein 4; test: Inhibition of BRD4 BD2 (unknown origin) preincubated for 15 mins followed by peptide addition and measured after 60 mins by TR-FRET assay
[7] = biological target: T2, Bromodomain-containing protein 2; test: Inhibition of BRD2 BD1 (unknown origin) preincubated for 15 mins followed by peptide addition and measured after 60 mins by TR-FRET assay
[8] = Half life in Wistar rat at 15 mg/kg, po measured up to 24 hrs by LC-MS/MS analysis; assay type: ADME, organism-based; conditions: in vivo
[9] = AUC(0 to t) in Wistar rat at 15 mg/kg, po measured up to 24 hrs by LC-MS/MS analysis; assay type: ADME, organism-based; set-up: route oral, dose 15 mg/kg, time <=24; conditions: in vivo
[10] = Cmax in Wistar rat at 15 mg/kg, po measured up to 24 hrs by LC-MS/MS analysis; assay type: ADME, organism-based; set-up: route oral, dose 15 mg/kg, time <=24; conditions: in vivo
[11] = Oral bioavailability in Wistar rat at 15 mg/kg measured up to 24 hrs by LC-MS/MS analysis; assay type: ADME, organism-based; conditions: in vivo
[12] = AUC(0 to t) in Wistar rat at 5 mg/kg, iv measured up to 24 hrs by LC-MS/MS analysis; assay type: ADME, organism-based; set-up: route intravenous, dose 5 mg/kg, time <=24; conditions: in vivo
[13] = AUC(0 to infinity) in Wistar rat at 5 mg/kg, iv measured up to 24 hrs by LC-MS/MS analysis; assay type: ADME, organism-based; set-up: route intravenous, dose 5 mg/kg, time <=24; conditions: in vivo
[14] = AUC(0 to infinity) in Wistar rat at 15 mg/kg, po measured up to 24 hrs by LC-MS/MS analysis; assay type: ADME, organism-based; set-up: route oral, dose 15 mg/kg, time <=24; conditions: in vivo
[15] = Half life in Wistar rat at 5 mg/kg, iv measured up to 24 hrs by LC-MS/MS analysis; assay type: ADME, organism-based; conditions: in vivo
[16] = Apparent clearance during terminal phase in Wistar rat at 15 mg/kg, po measured up to 24 hrs by LC-MS/MS analysis; assay type: ADME, organism-based; conditions: in vivo, read-out: CLz/F (converted)
[17] = Tmax in Wistar rat at 15 mg/kg, po measured up to 24 hrs by LC-MS/MS analysis; assay type: ADME, organism-based; conditions: in vivo
[18] = Apparent clearance during terminal phase in Wistar rat at 5 mg/kg, iv measured up to 24 hrs by LC-MS/MS analysis; assay type: ADME, organism-based; conditions: in vivo

T2 sequence (P25440 whole entry): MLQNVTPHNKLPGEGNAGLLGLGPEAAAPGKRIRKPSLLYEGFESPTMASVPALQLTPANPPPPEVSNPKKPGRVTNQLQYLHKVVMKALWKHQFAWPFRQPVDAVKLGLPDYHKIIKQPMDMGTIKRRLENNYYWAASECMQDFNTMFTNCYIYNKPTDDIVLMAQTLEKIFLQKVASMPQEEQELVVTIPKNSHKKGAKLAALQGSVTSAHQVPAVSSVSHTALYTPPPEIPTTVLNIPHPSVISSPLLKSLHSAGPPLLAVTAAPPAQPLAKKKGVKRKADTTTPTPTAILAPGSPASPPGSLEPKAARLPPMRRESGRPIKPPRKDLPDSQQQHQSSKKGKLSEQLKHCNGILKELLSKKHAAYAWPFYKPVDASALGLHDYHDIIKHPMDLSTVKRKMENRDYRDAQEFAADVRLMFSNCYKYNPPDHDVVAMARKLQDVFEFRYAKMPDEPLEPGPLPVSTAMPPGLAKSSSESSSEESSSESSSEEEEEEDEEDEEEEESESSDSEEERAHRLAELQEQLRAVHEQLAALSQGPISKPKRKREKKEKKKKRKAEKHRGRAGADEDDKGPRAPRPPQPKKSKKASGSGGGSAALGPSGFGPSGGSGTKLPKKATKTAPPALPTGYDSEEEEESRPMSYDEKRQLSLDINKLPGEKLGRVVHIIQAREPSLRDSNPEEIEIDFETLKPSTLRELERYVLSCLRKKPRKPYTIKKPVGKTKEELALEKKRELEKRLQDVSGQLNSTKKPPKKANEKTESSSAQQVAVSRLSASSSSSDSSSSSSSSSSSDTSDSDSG

Cc1sc2c(c1C)C(c1ccc(Cl)cc1)=N[C@@H](CC(=O)OC(C)(C)C)c1nnc(C)n1-2 showed an IC50 [1] of 4.97 µM, an IC50 [2] of 0.16 µM and an IC50 [3] of 0.48 µM.
Molecule COc1ccccc1S(=O)(=O)Nc1ccc2c(c1)CN(C)C(=O)N2 has an IC50 [1] of 19.8 µM, an IC50 [2] of 3.99 µM and an IC50 [3] of 14.7 µM.
Work on CC(C)=C1C(=O)Nc2ccc(NS(=O)(=O)c3cccc4c(N(C)C)cccc34)cc21 yielded an IC50 [4] of 0.208 µM.
With COc1ccc(Br)cc1S(=O)(=O)Nc1ccc2c(c1)C(=C(C)C)C(=O)N2 the IC50 [5] was 0.022 µM, the IC50 [6] was 0.021 µM and the IC50 [4] was 0.023 µM. For the same molecule, the IC50 [7] was 0.039 µM.
With COc1ccccc1S(=O)(=O)Nc1ccc2c(c1)C(=C1CCC1)C(=O)N2 the IC50 [4] was 0.026 µM.
For CC(C)=C1C(=O)Nc2ccc(NS(=O)(=O)C3CCCCC3)cc21, the IC50 [4] was 0.022 µM.
Work on COc1ccc(S(=O)(=O)Nc2ccc3c(c2)C(=C(C)C)C(=O)N3)cc1 yielded an IC50 [4] of 0.094 µM.
In the case of COc1ccccc1S(=O)(=O)Nc1ccc2c(c1)C(=C(C)C)C(=O)N2, the half-life [8] is reported as 3.59 h, the IC50 [5] is reported as 0.018 µM and the AUC(0-t) at 24 h [9] is reported as 14400 ng·h/mL. For the same molecule, the Cmax [10] was 2180 ng/mL, the bioavailability [11] was 66% and the AUC(0-t) at 24 h [12] was 7300 ng·h/mL. It also gave an AUC(0-inf) [13] of 7340 ng·h/mL, an AUC(0-inf) [14] of 14600 ng·h/mL and a half-life [15] of 1.56 h. For the same molecule, the CL/F [16] was 17.2 mL/min/kg, the Tmax [17] was 1 h and the IC50 [7] was 0.024 µM. It also gave a CLz/F [18] of 11.3 mL/min/kg.
Molecule CC(C)=C1C(=O)Nc2ccc(NS(=O)(=O)c3cccc4ccccc34)cc21 has an IC50 [4] of 0.062 µM.
With COc1ccc(F)cc1S(=O)(=O)Nc1ccc2c(c1)C(=C(C)C)C(=O)N2 the IC50 [4] was 0.034 µM.
In the case of COc1ccc(C)cc1S(=O)(=O)Nc1ccc2c(c1)C(=C(C)C)C(=O)N2, the IC50 [4] is reported as 0.03 µM.
Molecule CC(C)=C1C(=O)Nc2ccc(NS(=O)(=O)c3cc(C)ccc3F)cc21 has an IC50 [4] of 0.02 µM.
For C/C=C1\C(=O)Nc2ccc(NS(=O)(=O)c3ccccc3OC)cc21, the IC50 [4] was 0.036 µM.
Work on CC/C=C1\C(=O)Nc2ccc(NS(=O)(=O)c3ccccc3OC)cc21 yielded an IC50 [4] of 0.114 µM.
For CC(C)=C1C(=O)Nc2ccc(NS(=O)(=O)c3cc(F)ccc3F)cc21, the IC50 [4] was 0.056 µM.
CC(C)=C1C(=O)Nc2ccc(NS(=O)(=O)c3ccc4c(c3)CCO4)cc21 showed an IC50 [4] of 0.092 µM.
In the case of CC(C)=C1C(=O)Nc2ccc(NS(=O)(=O)c3ccc4ccccc4c3)cc21, the IC50 [4] is reported as 0.203 µM.
Molecule CC(C)=C1C(=O)Nc2ccc(NS(=O)(=O)c3ccccc3Br)cc21 has an IC50 [5] of 0.025 µM, an IC50 [6] of 0.043 µM and an IC50 [4] of 0.025 µM. The IC50 [7] was 0.04 µM.
